Several values for one entry are separate records, joined by “and”; a condition that tells them apart may be missing. Identical values can stand only once. Like-named read-outs stand apart in the source and are kept apart here.
How the values were obtained:
[1] = test system: Plasmodium falciparum W2 strain (CQ-resistant); experiment: In vitro antiplasmodial activity, SYBR test; type: cell-based; settings: for SI (selectivity index): ratio between cytotoxic (WI-26-VA4) and antiplasmodial (W2) activities
Protocol: Continuous culture was maintained as previously described. In vitro antiplasmodial activity of the seven compounds against the P. falciparum culture was evaluated using the SYBR test as previously described. Compounds were diluted to concentrations ranging from 10 to 0.0001 μM. […] The plate was read in a fluorometer (Fluoroskan Ascent, Thermo Laboratories) with excitation at 485 nm and an emission of […]. All experiments were performed in triplicate. The results were expressed as the mean of minimum lethal dose for 50% of the culture (IC50).
Selectivity index (SI) is the ratio between the cytotoxic and antiplasmodial activities of each compound tested. The values greater than 10 were considered indicative of lack of cytoxicity, whereas the substances with values below 10 were considered toxic.

[2] = test system: human pulmonary fibroblast cells WI-26VA4; experiment: In vitro cytotoxicity on mammalian cells, MTT assay; type: cell-based; settings: read-out: WI-26-VA4 IC50 ± SD
Protocol: In vitro cytotoxicity of the compounds was assessed against human pulmonary fibroblast cells WI-26VA4 (ATCC CCL-95.1, USA), by 3-(4,5-dimethyl-2-thiazolyl)-2, 5-diphenyl-2H-tetrazolium bromide (MTT assay). Cells were cultured in a RPMI-1640 medium supplemented with 10% heat-inactivated fetal bovine serum in a 96-well plate. Compounds were diluted in different concentrations ranging from 100 to 1 μM and incubated with the cells for 48 h in a 5% CO2 atmosphere at 37 °C. The optical density was determined at 540 nm […] (Spectra Max340PC384, Molecular Devices, Sunnyvale, CA, USA). The minimum lethal dose for 50% of the cells (IC50) was determined as previously described.

Plasmodium berghei ANKA [3] = experiment: Curative test in the mouse model of experimental cerebral malaria; type: in vivo, C57BL/6 mice infected with P. berghei ANKA; settings: for Parasitemia ± SD, 5th dpi / % Reduction of parasitemia, 5th dpi / % Reduction of parasitemia, 7th dpi / Parasitemia ± SD, 7th dpi: 10 mg/Kg oral, day 3 to 7 p.i.
Plasmodium berghei ANKA [4] = experiment: Suppressive modified test in the mouse model of experimental cerebral malaria; type: in vivo, C57BL/6 mice infected with P. berghei ANKA; settings: for Parasitemia ± SD, 5th dpi / % Reduction of parasitemia, 5th dpi / % Reduction of parasitemia, 7th dpi / Parasitemia ± SD, 7th dpi: suppressive test, 10 mg/Kg oral for five days from 4 h after infection
Protocol: The animals (n = 5/cage) were housed in ALESCO® climate-controlled cabinets with controlled air flow, a temperature of 22 ± 2 °C and light control, respecting the animals’ circadian rhythm (light/dark cycle of 12 h), with standard rodent food and water ad libitum.
To carry out the proposed experiments, the murine model of ECM was used to assess the antimalarial activity of the compounds. Plasmodium berghei ANKA was kindly provided by Claudio Romero Marinho (Federal University of São Paulo-Brazil), and was used to conduct the infections which were performed by intraperitoneal (i.p.) injection of 10^5 parasitized red blood cells (pRBCs) obtained from infected donor mice, as previously described. Reduced responsiveness to external stimuli, ataxia, paralysis, coma, and/or convulsions were considered clinical signals of ECM [44].
In the suppressive modified test, mice were treated daily by oral gavage for five consecutive days, starting four hours after infection.
Parasitemia was monitored using giemsa-stained blood smears and the inhibition of parasite multiplication (IPM) was calculated by the formula: [(A–B)/A] × 100, where A = parasitemia of the PbA, and B = parasitemia of the group treated with the compounds. The clinical symptoms were evaluated using the rapid murine coma and behavior scale (RMCBS) from day 5 p.i. being maintained until the end of experimentation. The RMCBS consists of 10 parameters (gait, balance, motor performance, body position, limb strength, touch escape, pinna reflex, toe pinch, aggression, and grooming). Each parameter is scored 0 to 2, with 0 being the lowest function and 2 being the highest. Animals with clinical score ≤ 5 were euthanized. The survival rate (SR) was calculated based on the number of alive animals after 14 days of clinical evaluation. […]

[5] = test system: peritoneal macrophages of BALB/c mice; experiment: Cytotoxicity on peritoneal macrophages, MTT method; type: cell-based; settings: 18 to 150 μM, 48 h
Protocol: Macrophages obtained from the peritoneal cavity of BALB/c mice previously inoculated with 3% thioglycollate medium for the evaluation of cell viability were used. The macrophages were seeded in culture bottles with a RPMI-1640 medium supplemented with 2 mM L-glutamine, 100 µg/mL antibiotics (streptomycin and penicillin), 5% fetal bovine serum (FBS) and kept in an incubator at 5% CO2 atmosphere at 37 °C until the day of the test. The protocol was approved by the Ethical Committee for Animal Research of Federal University of Juiz de Fora (n° 007/2018-CEUA).
Cytotoxicity was assessed by cell viability using the MTT method. Briefly, the macrophages at 2 × 10^6 cells/well were transferred to 96-well microplates and treated with compound 10 at concentrations of 18 to 150 μM. For the negative control, cells were treated only with 0.06% DMSO (vehicle). The cells were incubated for 48 h at 37 °C and 5% CO2 atmosphere. Absorbance was read at 570 nm and cell viability (%) of macrophages was obtained by the following formula: % viable cells = [(AUSample)/AU0.06% DMSO] × 100, where: AUSample: Absorbance was measured after treatment of cells with the sample; AU0.06% DMSO: Absorbance was measured after treatment of cells with 0.06% DMSO. The experiment was performed in triplicate.

[6] = test system: NO production in murine peritoneal macrophages; experiment: NO production by LPS/IFN-γ stimulated macrophages, Griess method; type: cell-based, BALB/c mice; settings: macrophages stimulated with LPS and IFN-γ, 18 to 150 μM, 48 h, p < 0.05
Protocol: NO production was determined in the culture supernatants of macrophages after being incubated for 48 h in the presence of compound 10 ([…]) and stimulated with LPS at 1 μg/mL and IFN-γ at 1 ng/mL. Negative control was stimulated with LPS and IFN-γ and treated with 0.06% DMSO (vehicle). The cells were incubated for 48 h at 37 °C and 5% CO2 atmosphere. Subsequently, NO production was evaluated by the Griess method (an indirect NO measurement by nitrite dosing) in the recovered culture supernatant from the 48 h stimuli and treatment as described by. The quantity of NO (μM) was determined by comparison with a standard sodium nitrite solution. The spectrophotometric measurement was performed at 540 nm and the experiment was performed in triplicate.

[7] = Plasmodium falciparum, W2 strain (chloroquine-resistant), SYBR test, triplicate, read-out: P. falciparum IC50 ± SD
[8] = WI26VA4, human fibroblasts, MTT, 48 h, highest concentration 100 μM
[9] = suppressive treatment regimen, 10 mg/kg oral

Row | Molecule | IC50 [1, 7] [nM] | SI (selectivity index) [1] | IC50 [2, 8] [nM] | Parasitemia ± SD, 5th dpi (Plasmodium berghei ANKA [3]) | % Reduction of parasitemia, 7th dpi (Plasmodium berghei ANKA [3]) [%] | Parasitemia ± SD, 7th dpi (Plasmodium berghei ANKA [3]) | Prevention of the development of CM (share of animals) (Plasmodium berghei ANKA [3]; 10 mg/kg oral) | Parasitemia ± SD, 5th dpi (Plasmodium berghei ANKA [4]) | % Reduction of parasitemia, 7th dpi (Plasmodium berghei ANKA [4]) [%] | Parasitemia ± SD, 7th dpi (Plasmodium berghei ANKA [4]) | % Reduction of parasitemia, 5th dpi (Plasmodium berghei ANKA [3]) [%] | further results
1 | artemisinin [reference compound] |  |  |  |  |  |  |  |  |  |  |  | IC50 ([1]; W2 strain (chloroquine-resistant), SYBR test, triplicate, read-out: P. falciparum IC50 ± SD): 95 ± 10 nM; IC50 ([2]; human fibroblasts, MTT, 48 h, highest concentration 100 μM): > 100000 nM
2 | COc1cc(C2NCCc3c2[nH]c2ccccc32)cc(OC)c1OC (stereo not drawn) [Compound 9, 1-(3,4,5-Trimethoxyphenyl)-2,3,4,9-tetrahydro-1H-pyrido[3,4-b]indole] | 1120 ± 14 | >89 | > 100000 |  |  |  |  |  |  |  |  | 
3 | COc1cc(-c2nccc3c2[nH]c2ccccc23)cc(OC)c1OC [Compound 10, 1-(3,4,5-Trimethoxyphenyl)-9H-pyrido[3,4-b]indole] | 510 ± 11 | >196 | > 100000 | 1.02 ± 0.93 | 0 | 8.37 ± 2.26 | 70% | 0.57 ± 0.94 | 45.69 | 3.72 ± 3.93 |  | % Reduction of parasitemia, 5th dpi (Plasmodium berghei ANKA [3]; 10 mg/kg): 67.9% and 67.92%; % Reduction of parasitemia, 5th dpi (Plasmodium berghei ANKA [4]; 10 mg/kg): 82% and 82.07%; Toxicity for peritoneal macrophages (cell viability, MTT) [5]: no toxicity; NO levels (nitrite equivalent) [6]: reduce NO levels at all concentrations tested
4 | CCN(CC)CCCC(C)Nc1ccnc2cc(Cl)ccc12 (stereo not drawn) [CQ, chloroquine, reference compound] |  |  |  |  | 96.1 | 0.21 ± 0.27 |  | 0.24 ± 0.05 | 96.1 | 0.21 ± 0.27 |  | IC50 ([1]; Plasmodium falciparum, W2, read-out: P. falciparum IC50 ± SD): 590 ± 15 nM; IC50 ([2]; Homo sapiens, WI26VA4, 48 h): > 100000 nM; % Reduction of parasitemia, 5th dpi (Plasmodium berghei ANKA [4]): 96.5%
5 | COC(=O)[C@@H]1Cc2c([nH]c3ccccc23)[C@H](c2ccccc2OC)N1 [Compound 3, Methyl (1S,3S)-1-(2-Methoxy)-2,3,4,9-tetrahydro-1H-pyrido[3,4-b]indole-3-carboxylate] | 710 ± 12 | >141 | > 100000 | 1.87 ± 1.02 | 0 | 7.50 ± 2.49 |  | 3.56 ± 2.57 | 0 | 7.96 ± 3.26 | 41.19 | % Reduction of parasitemia, 5th dpi (Plasmodium berghei ANKA [4]): 0.00%; Inhibition of parasite growth (in words) (Plasmodium berghei ANKA [4]; [9]): not effective
6 | COC(=O)[C@@H]1Cc2c([nH]c3ccccc23)[C@@H](c2ccccc2OC)N1 [Compound 4, Methyl (1R,3S)-1-(2-Methoxy)-2,3,4,9-tetrahydro-1H-pyrido[3,4-b]indole-3-carboxylate] | 1040 ± 21 | >96 | > 100000 | 0.79 ± 0.63 | 20.00 | 5.48± 3.64 |  | 1.88 ± 2.46 | 9.78 | 6.18 ± 4.75 | 75.16 | Animals alive until the 14th dpi (without CM) (Plasmodium berghei ANKA [3]; 10 mg/kg oral): 90%; % Reduction of parasitemia, 5th dpi (Plasmodium berghei ANKA [4]; 10 mg/kg): 40% and 40.88%; Protection against CM (share of animals) (Plasmodium berghei ANKA [4]; [9]): 60%
7 | COC(=O)[C@@H]1Cc2c([nH]c3ccccc23)[C@H](c2ccccc2Cl)N1 [Compound 5, Methyl (1S,3S)-1-(2-Chloro)-2,3,4,9-tetrahydro-1H-pyrido[3,4-b]indole-3-carboxylate] | 1410 ± 18 | >71 | > 100000 | 5.00 ± 1.59 | 0 | 7.20 ± 4.57 | No protective effect |  |  |  | 0.00 | 
8 | COC(=O)[C@@H]1Cc2c([nH]c3ccccc23)[C@@H](c2ccccc2Cl)N1 [Compound 6, Methyl (1R,3S)-1-(2-Chloro)-2,3,4,9-tetrahydro-1H-pyrido[3,4-b]indole-3-carboxylate] | 670 ± 19 | >149 | > 100000 | 1.13 ± 0.48 |  |  | No protective effect |  |  |  | 64.36 | 
9 | CCN(CC)c1ccc(C2NCCc3c2[nH]c2ccccc32)c(O)c1 (stereo not drawn) [Compound 8, 5-(Diethylamino)-2-(2,3,4,9-tetrahydro-1H-pyrido[3,4-b]indol-1-yl)phenol] | 1820 ± 11 | >55 | > 100000 |  |  |  |  |  |  |  |  | 
